The values that follow are results of earlier work, collected in patent US7632837B2, “Bicyclic heterocycles as cannabinoid-1 receptor modulators” (Bristol-Myers Squibb Company, priority 2005, dated 2009).

Each structure is given as a SMILES string.

The conditions of data set [1]: chronic administration for two weeks.
The conditions of data set [2]: 16 week trial period; published Phase IIb data.

Turning to `Cc1c(C(=O)NN2CCCCC2)nn(-c2ccc(Cl)cc2Cl)c1-c1ccc(I)cc1` [AM-251], the body weight entry in data set [1] is reported as “substantial body weight reduction”.

Take `Cc1c(C(=O)NN2CCCCC2)nn(-c2ccc(Cl)cc2Cl)c1-c1ccc(Cl)cc1` [SR-141716]: the “body weight in human subjects” value in data set [2] is “dose-dependently reduced body weight”.
